For data set [1] the following is noted: male, Wistar (HsdBrlHan WIST), rat, in vivo, ip.
For data set [2], the system named is rat model of prostate bone cancer pain. As to the kind of experiment: animal or person. It counts as in vivo, Male Wistar rats. The conditions noted are these: for ED50: Rattus norvegicus.
The subject of data set [3] is rat model of diabetic neuropathic pain. Details: species or system rats. The conditions noted are these: in vivo.
For data set [4] the following is noted: rat, in vivo.
For data set [5], the system named is streptozotocin-induced diabetic neuropathy model of neuropathic pain. The conditions noted are these: rat, in vivo, ip, 2.5 mg/kg.

The results in this text go back to patent publication US20110129508A1 (priority 2008, published 2011).

SMILES strings stand for the structures. “Also recorded” adds a separate entry of the source. Read-outs that look alike come from different tables or passages of the source.

As for `CN1CC[C@]23c4c5ccc(O)c4O[C@H]2[C@@H](O)C=C[C@H]3[C@H]1C5` [morphine], the maximum non-sedating dose in data set [1] was found to be 5 mg/kg. In addition, the ED50 in data set [2] (ip) and in data set [2] (read-out: ED50 Mean) was 0.735 mg/kg throughout. Moreover, the antinociception result in data set [2] (rat, in vivo, ip) is listed as “dose related antinociception; also recorded: dose related antinociceptive effects”. Further, the reversal of hyperalgesia in data set [2] (rat, in vivo, ip, 5 mg/kg) is reported as 73%.

For the molecule `CCOC(=O)Nc1ccc(NCc2ccc(F)cc2)nc1N` [flupirtine], the reversal of hyperalgesia in data set [3] is 8±8%. In data set [4], this molecule registered a mean rest times of 943.83 s. Moreover, the ED50 in data set [2] (ip) and in data set [2] (read-out: ED50 Mean) was 3.32 mg/kg throughout. Moreover, the reversal in hyperalgesia entry in data set [5] was “over 20%”.
